Measurements published in patent US9827338B2, “GRP-R agonistic 177-lutetium-labeled bombesin derivatives for diagnosis and treatment of prostate cancer” (KOREA ATOMIC ENERGY RESEARCH INSTITUTE, priority 2014, dated 2017).

How the values were obtained:
[1] = In vivo histological toxicity (spleen and kidney, H&E); set-up: species or system Balb/c nude mouse; settings: therapeutic dose, H&E stained, versus normal and control group
Experimental: (§1) In order to confirm a toxicological effect by therapeutic dose, a body weight and histological states of organs were evaluated. The body weight was measured twice a week, and after euthanizing the animal model at the timing at which evaluation was terminated, spleen and kidney tissue was collected and H&E stained.

[2] = system: prostate cancer; assay: Comparison of in vivo targeting efficiency to prostate cancer with comparative material 177Lu-AMBA; settings: versus comparative material 177Lu-AMBA
Source text: As a material having prostate cancer targeting mechanism similar to that of the bombesin derivatives (177Lu-DOTA-gluBBN) using the bombesin derivatives, which is the GRP-R agonist, prepared according to Example 2, 177Lu-AMBA (comparative material (J. Nucl. Med. 47(7):1144-1152 (Non-Patient Document)), see compound in FIG. 1) is a prostate cancer targeting diagnosis and treatment material of which excellent targeting efficiency is recognized, such that currently a phase 1 clinical trial was terminated.

[3] = In vivo distribution in PC-3 xenografted tumor mouse model; settings: male, Balb/c nude, tumor (PC-3 xenograft), total radioactivity, prostate cancer cells (tumor), 1 hour after intravenous injection, 370 KBq, read-out: tumor uptake, percentage of the injected dose per unit weight
Experimental: In order to evaluate in vivo targeting efficiency of 177Lu-DOTA-gluBBN, in vivo distribution of 177Lu-DOTA-gluBBN in a tumor mouse model obtained by xenografting PC-3 cells, which are human prostate cancer cells, into a Balb/c nude mouse (Nara biotech, Korea) was evaluated. The tumor-bearing mouse model was prepared by subcutaneously injecting the PC-3 cells (1×10^7) into a right upper end of the shoulder of a male Balb/c nude mouse (7 weeks old) and allowing tumor to grow for 3 weeks. 177Lu-DOTA-gluBBN (370 KBq) was intravenously injected into a tail vein of the tumor mouse model. After […] of injection, the experimental animal was euthanized. Then, after the blood, the liver, the kidney, the spleen, the heart, the large intestine, the small intestine, the lung, the stomach, the pancreas, and the like, in addition to the tumor were extracted, weights of the organs were measured, and radioactivity of each organ was measured. 177Lu-DOTA-gluBBN uptake in each organ was expressed as percentage of the injected dose per unit weight (% ID/g). It was confirmed that 177Lu-DOTA-gluBBN targeted prostate cancer cells at 1 hour after intravenous injection with high efficiency (12.42±2.15% ID/g).

[4] = molecular target: T1, GRP-R (Homo sapiens, UniProt P30550); assay: Binding of 177Lu-DOTA-gluBBN in PC-3 cells (dissociation constant); settings: 0.01 to 100 nM, 37° C., 2 hours
T1 construct: PC-3 cells were used as a human prostate cancer cell line; host or cells: PC-3 human prostate cancer cells
Experimental: (§2) In order to confirm in vitro targeting efficiency of DOTA-gluBBN and 177Lu-DOTA-gluBBN prepared according to Examples 1 and 2 to prostate cancer cells, PC-3 cells were used as a human prostate cancer cell line. The PC-3 cells corresponding to the human prostate cancer cell line were purchased from Korean cell line bank. The PC-3 cells were cultured in a Roswell Park Memorial Institute (RPMI) 1640 medium containing 10% fetal bovine serum (FBS) at 37° C. in 5% CO2 atmosphere.
(§3) The cells were cultured in a disposable flask for cell culture, and at the time of an experiment, the cells were cultured in a 96-well or 12-well cell culture plate according to an experimental method and then used.
In addition, 177Lu-DOTA-gluBBN (0.01 to 100 nM) prepared according to Example 2 was reacted, respectively, in the PC-3 cells. After culturing a cell plate at 37° C. for 2 hours, a reaction solution was recovered. After the cells were washed with PBS and recovered by 1N NaOH, radioactivity of each solution was measured using a gamma counter.

[5] = In vivo physiological toxicity (body weight); set-up: species or system mouse; settings: therapeutic dose, early stage of administration, measured twice a week
Experimental: as §1

[6] = molecular target: T1, GRP-R; assay: Competitive binding with 125I-[Tyr4]-bombesin in PC-3 cells; settings: competition with 125I-[Tyr4]-bombesin (20,000 CPM), 37° C., 1 hour
Experimental: as §2, §3
DOTA-gluBBN (10^−6 to 10^−12M) prepared according to Example 1 was co-cultured with 125I-[Tyr^4]-bombesin (20,000 CPM), respectively, in the PC-3 cells, which are human prostate cancer cells, to thereby carry out a competitive reaction. After culturing a cell plate at 37° C. for 1 hour, a reaction solution was recovered. After the cells were washed with PBS and recovered by 1N NaOH, radioactivity of each solution was measured using a gamma counter.

T1 sequence (P30550 whole entry): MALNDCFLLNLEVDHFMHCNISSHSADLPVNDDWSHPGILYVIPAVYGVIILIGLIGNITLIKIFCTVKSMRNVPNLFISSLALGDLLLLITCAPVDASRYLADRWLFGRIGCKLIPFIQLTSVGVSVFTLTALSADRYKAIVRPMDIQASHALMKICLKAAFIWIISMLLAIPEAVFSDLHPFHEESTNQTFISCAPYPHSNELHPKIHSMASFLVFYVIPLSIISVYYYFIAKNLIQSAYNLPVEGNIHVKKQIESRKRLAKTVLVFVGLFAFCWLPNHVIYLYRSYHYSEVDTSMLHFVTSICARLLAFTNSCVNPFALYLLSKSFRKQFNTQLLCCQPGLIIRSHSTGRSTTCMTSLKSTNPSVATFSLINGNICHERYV

## CSCC[C@H](NC(=O)[C@H](CC(C)C)NC(=O)[C@H](Cc1c[nH]cn1)NC(=O)CNC(=O)[C@@H](NC(=O)[C@H](C)NC(=O)[C@H](Cc1c[nH]c2ccccc12)NC(=O)[C@H](CCC(N)=O)NC(=O)c1ccc(NC(=O)[C@H](CCCCNC(=O)CO[C@@H]2[C@@H](O)[C@@H](O)O[C@H](CO)[C@H]2O)NC(=O)CN2CCN(CC(=O)O)CCN(CC(=O)O)CCN(CC(=O)O)CC2)cc1)C(C)C)C(N)=O [177Lu-DOTA-gluBBN, metal not drawn]
[1]
  histological toxicity in spleen and kidney: not observed
[2]
  removal in the blood versus 177Lu-AMBA: more rapidly removed in the blood
[3]
  tissue uptake at 1 h: 12.4 ± 2.15 %ID/g
[4]
  Kd: ~0.63 nM
[5]
  body weight change: there was not a great change in the body weight

## CSCC[C@H](NC(=O)[C@H](CC(C)C)NC(=O)[C@H](Cc1c[nH]cn1)NC(=O)CNC(=O)[C@@H](NC(=O)[C@H](C)NC(=O)[C@H](Cc1c[nH]c2ccccc12)NC(=O)[C@H](CCC(N)=O)NC(=O)c1ccc(NC(=O)[C@H](CCCCNC(=O)CO[C@@H]2[C@@H](O)[C@@H](O)O[C@H](CO)[C@H]2O)NC(=O)CN2CCN(CC(=O)O)CCN(CC(=O)O)CCN(CC(=O)O)CC2)cc1)C(C)C)C(N)=O [DOTA-gluBBN]
[6]
  IC50: 4.67 nM
